Like-named read-outs stand apart in the source and are kept apart here. Marks after values point to notes of the source that are not given here.
What was measured:
[1] = Method: Patients received focal CRT at the current standard dose of 54 Gy in 180 cGy fractions, Monday through Friday for a total of 30 fractions over 6 weeks, with a rest period on Saturday and Sunday of each week.
Adverse events (AE) were graded according to the Common Terminology Criteria for Adverse Events version 5.0.
A rolling six design was used to estimate the MTD or RP2D. Overall survival (OS) was estimated using the Kaplan Meier method including 95% confidence intervals (CI). OS was calculated as the time (in months) from enrollment until date of death. […] Progressive disease was based on central imaging review. […] OS is compared with an historical cohort of patients which cumulatively includes DIPG patients from ACNS0126[23] and ACNS0222[22] using a log-rank test. PK parameters were analyzed with summary statistics, including means, and standard deviations.

clinical = conditions: human, in vivo
Method: Pharmacokinetic parameters were calculated using noncompartmental methods[20] using Phoenix® WinNonlin® Version 8.1 (WinNonlin version 8.1.03530, Pheonix 64; Pharsight Corporation, Mountain View, CA). […] Oral steady-state clearance (ClSS/F) was calculated using the equation, ClSS = Dose/AUCτ.

SMILES: C=CCn1c(=O)c2cnc(Nc3ccc(N4CCN(C)CC4)cc3)nc2n1-c1cccc(C(C)(C)O)n1 [adavosertib]
- Lung infection, patient-courses with grade >= 3 ([1]; all dose levels (N = 89)): 1 (1) # (%)
- Lung infection, patient-courses with grade >= 3 ([1]; dose level 4 (N = 15), 95 mg/m^2): 1 (6) # (%)
- Alanine aminotransferase increased, patient-courses with grade >= 3 ([1]; human, in vivo, 6 weeks): 1 (1) # (%)
- Anemia, patient-courses with grade >= 3 ([1]; human, in vivo, 6 weeks): 3 (3) # (%)
- Dizziness, patient-courses with grade >= 3 ([1]; human, in vivo, 6 weeks): 1 (1) # (%)
- Febrile neutropenia, patient-courses with grade >= 3 ([1]; human, in vivo, 6 weeks): 1 (1) # (%)
- Headache, patient-courses with grade >= 3 ([1]; human, in vivo, 6 weeks): 1 (1) # (%)
- Hypocalcemia, patient-courses with grade >= 3 ([1]; human, in vivo, 6 weeks): 1 (1) # (%)
- Lymphocyte count decreased, patient-courses with grade >= 3 ([1]; human, in vivo, 6 weeks): 16 (18) # (%)
- Neutrophil count decreased, patient-courses with grade >= 3 ([1]; human, in vivo, 6 weeks): 4 (4) # (%)
- Weight gain, patient-courses with grade >= 3 ([1]; human, in vivo, 6 weeks): 2 (2) # (%)
- White blood cell decreased, patient-courses with grade >= 3 ([1]; human, in vivo, 6 weeks): 5 (6) # (%)
- Recommended phase 2 dose (RP2D) ([1]; human, in vivo, po, 6 weeks): 200 mg/m^2/d
- Maximum tolerated dose (MTD) ([1]; seven dose levels up to 200 mg/m^2/day with CRT): No MTD was reached
- Dose dependence of Cmax and AUC (clinical): appeared to increase in proportion to dose
- Median BSA-adjusted plasma clearance (clinical): 45.2 L/hr/m^2
- Median half-life (clinical): 4.4 h
- half-life (clinical): 4.4 h
- AUC (clinical; 50 mg/m2): 2.45 ± 1.04 µM·h
- AUC0-8h (clinical; 50 mg/m2): 1.42 ± 0.438 µM·h
- AUC(0-inf) (clinical; 50 mg/m2): 2.22 ± 0.8 µM·h
- CLss (steady-state clearance) (clinical; 50 mg/m2): 47.9 ± 23.2 L/hr/m^2
- Cmax (clinical; 50 mg/m2): 356 ± 109 nM
- Tmax (clinical; 50 mg/m2): 1.9 ± 0.9 h
- half-life (clinical; 50 mg/m2): 4.2 ± 1.3 h
- AUC(0-t) (clinical; 50 mg/m2, AUC0-8h): 1.65 ± 0.654 µM·h
- Cmax (clinical; 50 mg/m2, Cmax): 422 ± 170 nM
- Tmax (clinical; 50 mg/m2, Tmax): 1.9 ± 0.9 h
- AUC (clinical; 95 mg/m2): 5.74 ± 2.72 µM·h
- AUC0-8h (clinical; 95 mg/m2): 3.362 ± 0.85 µM·h
- AUC(0-inf) (clinical; 95 mg/m2): 6.03 ± 1.98 µM·h
- CLss (steady-state clearance) (clinical; 95 mg/m2): 39.2 ± 17.2 L/hr/m^2
- Cmax (clinical; 95 mg/m2): 869 ± 235 nM
- Tmax (clinical; 95 mg/m2): 1.8 ± 0.4 h
- half-life (clinical; 95 mg/m2): 4.5 ± 1.2 h
- AUC(0-t) (clinical; 95 mg/m2, AUC0-8h): 4.01 ± 1.81 µM·h
- Cmax (clinical; 95 mg/m2, Cmax): 933 ± 351 nM
- Tmax (clinical; 95 mg/m2, Tmax): 1.9 ± 0.5 h
- AUC (clinical; 130 mg/m2): 7.21 ± 2.76 µM·h
- AUC0-8h (clinical; 130 mg/m2): 3.731 ± 1.583 µM·h
- AUC(0-inf) (clinical; 130 mg/m2): 5.87 ± 2.26 µM·h
- CLss (steady-state clearance) (clinical; 130 mg/m2): 41.6 ± 19.8 L/hr/m^2
- Cmax (clinical; 130 mg/m2): 821 ± 410 nM
- half-life (clinical; 130 mg/m2): 4.1 ± 0.5 h
- AUC(0-t) (clinical; 130 mg/m2, AUC0-8h): 4.48 ± 1.77 µM·h
- Cmax (clinical; 130 mg/m2, Cmax): 994 ± 467 nM
- Tmax (clinical; 130 mg/m2, Tmax): 2.3 ± 0.8 h
- AUC (clinical; 160 mg/m2): 12.8 ± 1.8 µM·h
- AUC0-8h (clinical; 160 mg/m2): 6.689 ± 2.738 µM·h
- AUC(0-inf) (clinical; 160 mg/m2): 11.4 ± 3.73 µM·h
- CLss (steady-state clearance) (clinical; 160 mg/m2): 25.6 ± 3.3 (n* = 4) L/hr/m^2
- Cmax (clinical; 160 mg/m2): 1270 ± 705 nM
- half-life (clinical; 160 mg/m2): 4.8 ± 1 h

Reference: publication PMC9209747 (Neuro-oncology Advances, 2022)
